Measured values: patent US20080021107A1, “USE OF AMINO ACIDS FOR TREATMENT OF VARIOUS CONDITIONS” (UNIVERSITY OF ROCHESTER, priority 2002, published 2008)

Columns and labels:
[1] = test system: hot flashes in post-menopausal women; experiment: Oral administration to patients experiencing hot flashes as symptoms of postmenopausal hormone variation; conditions: for side effects: human, in vivo, po
Description: Administration of L-Norleucine to Patients Experiencing Hot Flashes as Symptoms of Postmenopausal Hormone Variation […]

[2] = high-dose oral L-methionine; van der Griend et al. 2002; cited from earlier work
[3] = test system: palmar hyperhidrosis; conditions: L-methionine 1 g bid orally
[4] = test system: hot flashes as a result of the post-partum state; conditions: L-methionine 1 g bid orally
[5] = Backonja et al. 1998; Rowbotham et al. 1998; cited from earlier work

| SMILES | improvement in hot flash frequency ([1]; Patient No. 1, about 10 hot flashes per day, L-methionine 1 gram tid orally, after three weeks, benefit persisted for 3 months of therapy) | change in symptoms ([1]; Patient No. 1, L-methionine 500 mg three times daily for two weeks) | improvement in hot flash frequency ([1]; Patient No. 2, about 15 hot flashes per day, L-methionine 1 g tid orally, after three weeks, benefit persisted for 5 months of therapy) | improvement in nighttime hot flash frequency ([1]; Patient No. 3, about 7 hot flashes per day, L-methionine 500 mg tid orally, after three weeks) | improvement in both nighttime and daytime hot flash severity ([1]; Patient No. 3, L-methionine 500 mg tid orally, after three weeks) | side effects [1] | increase in serum homocysteine levels [2] | side effects [3] | reduction in the subjective severity of palmar hyperhidrosis ([3]; person, after 3 weeks) | side effects [4] | improvement in hot flash frequency ([4]; person, 3 severe nighttime and 2 moderate daytime hot flashes per day, after three weeks) | reduction in hot flashes ([1]; Example 4 Patient No. 1, 6 hot flashes/day at baseline, oral L-norleucine 1.5 grams 2x/day, starting 10 days after initiating, maintained for 3.5 months) | reduction in hot flashes ([1]; Example 4 Patient No. 2, 8 hot flashes/day at baseline, oral L-norleucine 1 gram 2x/day, starting 4 days after initiating, maintained for 1.5 months) | tolerability ([1]; Example 1 Patient No. 1, gabapentin therapy for several days) | patient withdrawal rate due to side effects (most often sleepiness and dizziness) [5] |
| --- | --- | --- | --- | --- | --- | --- | --- | --- | --- | --- | --- | --- | --- | --- | --- |
| CSCC[C@H](N)C(=O)O [L-methionine] | 90% | without noticing an appreciable change | 90% | 66% | 50% | No side effects | 10 fold | No side effects | 50% | No side effects | 100% | – | – | – | – |
| CCCC[C@H](N)C(=O)O [L-norleucine] | – | – | – | – | – | No side effects | – | – | – | – | – | 70% | 87% | – | – |
| NCC1(CC(=O)O)CCCCC1 [gabapentin, Gabapentin, reference compound] | – | – | – | – | – | – | – | – | – | – | – | – | – | unable to tolerate the drug due to severe dizziness | approximately 13% |
